Assay in all cases: ≥ marks a high value that may be exact or a test limit, other limits are often not marked, values filed in µg/mL are converted to µM
In assay [1] the test system is Aeromonas salmonicida.
In assay [2] the test system is Vibrio anguillarum.
For assay [3], the system named is Pseudomonas aeruginosa ATCC 27853.
Assay [4] concerns Staphylococcus aureus MR.
Assay [5] has as its system Staphylococcus aureus ATCC 49476.
Assay [6] relates to Candida albicans.
Assay [7] concerns Yersinia enterocolitica.
Assay [8] deals with Salmonella sp.
The subject of assay [9] is Staphylococcus aureus ATCC 29213.
The subject of assay [10] is Escherichia coli ATCC 25922.
Assay [11] has as its system Escherichia coli.
Assay [12] has as its system Staphylococcus aureus ATCC 43300.
The subject of assay [13] is Salmonella enterica subsp. enterica serovar Enteritidis.
The subject of assay [14] is Acinetobacter baumannii AB3.
Assay [15] deals with Staphylococcus aureus USA 100.
In assay [16] the test system is Pseudomonas aeruginosa PAO1.
Assay [17] relates to Staphylococcus aureus USA 300.
Assay [18] has as its system Klebsiella pneumoniae KP4.
For assay [19], the system named is Klebsiella pneumoniae KP2.
Assay [20] concerns Pseudomonas aeruginosa TRPA 108.
The test system of assay [21] is Acinetobacter baumannii AB2.
Assay [22] relates to Klebsiella pneumoniae KP3.
The test system of assay [23] is Acinetobacter baumannii AB1.
Assay [24] relates to Klebsiella pneumoniae KP1.
Assay [25] deals with Staphylococcus aureus 4003.
In assay [26] the test system is Pseudomonas aeruginosa TRPA 111.
For assay [27], the system named is Candida albicans ATCC 90028.
In assay [28] the test system is Cryptococcus neoformans ATCC 208821.
For assay [29], the system named is Acinetobacter baumannii ATCC 19606.
The test system of assay [30] is Klebsiella pneumoniae ATCC 700603.
For assay [31], the system named is Staphylococcus aureus NCTC 12981.
Assay [32] has as its system Escherichia coli NCTC 10418.

SMILES strings stand for the structures. Values after ≈ are worked out from the molar mass of the structure shown. Values joined by “and” are separate entries in the source; they are usually repeats but may differ in a detail not shown here. Equal values may be shown once.

Our source for the MIC values is DBAASP.

In the case of `CC(C)[C@H](NC(=O)[C@H](CCC(=O)O)NC(=O)[C@H](C)N)C(=O)N[C@@H](C)C(=O)N1CCC[C@H]1C(=O)N[C@@H](C)C(=O)N1CCC[C@H]1C(=O)N[C@@H](C)C(=O)N[C@@H](C)C(=O)N[C@@H](C)C(=O)N[C@@H](C)C(=O)N1CCC[C@H]1C(=O)N[C@@H](C)C(=O)N[C@@H](CCCCN)C(=O)N[C@@H](C)C(=O)N1CCC[C@H]1C(=O)N[C@@H](CCCCN)C(=O)N[C@@H](CCCCN)C(=O)N[C@@H](CCCCN)C(=O)N[C@@H](C)C(=O)N[C@@H](C)C(=O)N[C@@H](C)C(=O)N[C@@H](CCCCN)C(=O)N1CCC[C@H]1C(=O)N[C@@H](CCCCN)C(=O)N[C@@H](CCCCN)C(N)=O` [AEVAPAPAAAAPAKAPKKKAAAKPKK], the MIC in assay [1] and in [2] was at least 413 µM in each case.

Consider `CC[C@H](C)[C@H](NC(=O)[C@H](C)NC(=O)[C@H](CCCCN)NC(=O)CNC(=O)[C@H](C)NC(=O)[C@H](CO)NC(=O)[C@H](Cc1ccccc1)NC(=O)[C@H](CC(C)C)NC(=O)CNC(=O)CNC(=O)[C@@H](NC(=O)[C@@H](NC(=O)[C@H](Cc1cnc[nH]1)NC(=O)[C@@H](N)Cc1cnc[nH]1)[C@@H](C)CC)[C@@H](C)CC)C(=O)N[C@@H](Cc1cnc[nH]1)C(=O)N[C@@H](CCCN=C(N)N)C(=O)N[C@@H](CC(C)C)C(=O)N[C@H](C(=O)N[C@@H](CCCN=C(N)N)C(=O)N[C@@H](CCCN=C(N)N)C(=O)N[C@@H](CCCN=C(N)N)C(=O)N[C@@H](CCCN=C(N)N)C(=O)N[C@@H](CCCN=C(N)N)C(=O)O)[C@@H](C)CC` [HHIIGGLFSAGKAIHRLIRRRRR], for which the MIC (usually the smallest concentration in the dilution series that meets the test's criterion for growth inhibition) in assay [3] was 188 µM (≈ 512 µg/mL); in assay [4], at least 188 µM; in assay [5], at least 188 µM; in assay [6] it was 47 µM (≈ 128 µg/mL).

Turning to `CC[C@H](C)[C@H](NC(=O)[C@H](CCCCN)NC(=O)[C@@H](N)CCCN=C(N)N)C(=O)N[C@@H](CCCN=C(N)N)C(=O)N[C@@H](CCCN=C(N)N)C(=O)N[C@@H](CCCCN)C(=O)N[C@@H](Cc1c[nH]c2ccccc12)C(=O)N[C@@H](CCCCN)C(=O)N[C@@H](CCCN=C(N)N)C(N)=O` [RKIRRKWKR], the MIC in assay [7] is at least 37.7 µM; in assay [8] it was at least 37.7 µM; in [9] it was above 37.7 µM; in assay [10], above 37.7 µM; in [11], above 37.7 µM; in assay [12], above 37.7 µM. The compound also returned an MIC in [13] of at least 37.7 µM.

For `CC(C)[C@H](NC(=O)[C@H](Cc1c[nH]c2ccccc12)NC(=O)[C@H](CCCN=C(N)N)NC(=O)[C@H](CCCN=C(N)N)NC(=O)[C@@H](NC(=O)[C@@H](NC(=O)[C@H](CCCN=C(N)N)NC(=O)[C@@H](NC(=O)[C@@H](NC(=O)[C@H](CCCN=C(N)N)NC(=O)[C@H](CCCN=C(N)N)NC(=O)[C@@H](NC(=O)[C@H](Cc1c[nH]c2ccccc12)NC(=O)[C@H](CCCN=C(N)N)NC(=O)[C@H](CCCN=C(N)N)NC(=O)[C@@H](NC(=O)[C@H](CCCN=C(N)N)NC(=O)[C@H](CCCN=C(N)N)NC(=O)[C@@H](NC(=O)[C@H](Cc1c[nH]c2ccccc12)NC(=O)[C@H](CCCN=C(N)N)NC(=O)[C@@H](N)CCCN=C(N)N)C(C)C)C(C)C)C(C)C)C(C)C)C(C)C)C(C)C)C(C)C)C(=O)N[C@@H](CCCN=C(N)N)C(=O)N[C@@H](CCCN=C(N)N)C(=O)O` [RRWVRRVRRWVRRVVRVVRRWVRR], the MIC is 1.76 µM (≈ 6 µg/mL) in [14]; 1.76 µM (≈ 6 µg/mL) in assay [15]; 1.76 µM and 3.5 µM in [16]; 1.76 µM and 3.2 µM in assay [17]; 4.71 µM (≈ 16 µg/mL) in assay [18]; 9.41 µM (≈ 32 µg/mL) in assay [19]. For the same compound, the MIC amounted to 1.18 µM (≈ 4 µg/mL) in [20]; 3.24 µM (≈ 11 µg/mL) in [21]; 2.94 µM (≈ 10 µg/mL) in assay [22]; 1.47 µM (≈ 5 µg/mL) in assay [23]; 2.94 µM (≈ 10 µg/mL) in assay [24]; 1.47 µM (≈ 5 µg/mL) in assay [25]. The same compound returned an MIC in assay [26] of 0.882 µM (≈ 3 µg/mL).

As to `NC(=O)CC[C@H](NC(=O)[C@H](CCCN=C(N)N)NC(=O)[C@H](CCCN=C(N)N)NC(=O)[C@H](CS)NC(=O)[C@H](CCC(N)=O)NC(=O)[C@H](Cc1cnc[nH]1)NC(=O)[C@H](CO)NC(=O)[C@H](CCCN=C(N)N)NC(=O)[C@H](Cc1ccccc1)NC(=O)[C@H](Cc1cnc[nH]1)NC(=O)[C@H](CCCN=C(N)N)NC(=O)[C@H](Cc1cnc[nH]1)NC(=O)[C@H](Cc1cnc[nH]1)NC(=O)[C@@H](N)CO)C(=O)N[C@@H](CCCN=C(N)N)C(=O)N[C@@H](CO)C(=O)N[C@@H](CC(N)=O)C(=O)N[C@@H](CO)C(=O)N[C@@H](CS)C(=O)N[C@@H](CC(=O)O)C(=O)N[C@@H](CCCN=C(N)N)C(=O)O` [SHHRHFRSHQCRRQRSNSCDR], the MIC was above 11.9 µM in assay [3]; 11.9 µM (≈ 32 µg/mL) in assay [27]; 1.49 µM (≈ 4 µg/mL) in assay [28]; above 11.9 µM in assay [10]; above 11.9 µM in assay [12]; above 11.9 µM in [29]. The MIC in [30] is above 11.9 µM.

In the case of `NCCCC[C@H](NC(=O)[C@H](Cc1c[nH]c2ccccc12)NC(=O)[C@H](CCCCN)NC(=O)[C@@H](N)Cc1c[nH]c2ccccc12)C(=O)N[C@@H](Cc1c[nH]c2ccccc12)C(N)=O` [WKWKW], the MIC in assay [31] and in [32] was at least 154 µM each time.
